The results in this text go back to patent US20150253305A1, “METHODS OF IDENTIFYING COMPOUNDS FOR TREATING DEPRESSION AND OTHER RELATED DISEASES” (NORTHWESTERN UNIVERSITY, priority 2012, published 2015).

Series [1] deals with Sprague-Dawley rats. The series can be described thus: Ketamine drug discrimination. The note with it: FIG. 5: drug discrimination, place preference, prepulse inhibition, open field.
The subject of series [2] is Sprague-Dawley rats. The series can be described thus: Open field locomotor activity (line crosses). Particulars: 0.1 μg, 20 min following MPFC infusion.
The subject of series [3] is Sprague-Dawley rats. Put plainly: Porsolt test. The note with it: IV.
Series [4] relates to Wnt signaling pathway gene expression. The series can be described thus: Wnt pathway-specific qRT-PCR array in mPFC. The class given is in vivo, rat. On the procedure:
Adult (2-3 month-old) male Sprague-Dawley rats (Harlan Laboratories, Indianapolis, Ind.) were housed 3 to a cage and injected (IV) with one of the following—GLYX-13 (3 mg/kg), ketamine (10 mg/kg), or saline vehicle (1 ml/kg). At 1 and 24 hours after injection (N=5 per time point for each treatment group), rats were sacrificed, their brains were quickly dissected, frozen, and then stored at −80° C. The medial prefrontal cortex (mPFC) was dissected from frozen tissue on ice. An equal volume of the homogenized tissue was used to extract and purify RNA for microarray analysis and to make cDNA for qRT-PCR analysis. All procedures were approved by the Northwestern University IACUC committee and performed in accordance with the NIH Guide for the Care and Use of Laboratory Animals.
Reverse transcription of 1.0 μg of DNAsed, total RNA from 4 rats was primed with oligo(dT) and random hexamers. We utilized SuperScriptIII according to manufacturer's specifications (Invitrogen, Carlsbad, Calif.). A 1:10 dilution of cDNA was used as a template for quantitative real-time PCR, and the analysis was performed with Brilliant SYBR Green qRT-PCR Master Mix (Stratagene) on a Mx3000P Real-Time PCR System. ROX reference dye was included in all reactions. […]

Molecules are shown by their SMILES. Peptide text beside a SMILES is read from it.

For `C[C@@H](O)[C@H](N)C(=O)N1CCC[C@H]1C(=O)N1CCC[C@H]1C(=O)N[C@H](C(N)=O)[C@@H](C)O` [GLYX-13, L-threonyl-L-prolyl-L-prolyl-L-threonine amide] (H-TPPT-NH2), the “ketamine-like addictive sensory motor gating, or sedative side effects” value with Sprague-Dawley rats [1] was “does not show ketamine-like addictive sensory motor gating, or sedative side effects”.
Consider `CNC1(c2ccccc2Cl)CCCCC1=O` (stereo not drawn) [Ketamine, ketamine], for which, in the series with Sprague-Dawley rats [2], the “locomotor activity (line crosses in the open field) following MPFC infusion” value is on record as “increased locomotor activity”. Moreover, the “anti-depressant effect in the Porsolt test” value with Sprague-Dawley rats [3] (10 mg/kg) is “produces a long-lasting anti-depressant effect”. Further, the “rapid antidepressant-like effects in the Porsolt test” value with Sprague-Dawley rats [3] (rat) is “produce rapid antidepressant-like effects”. Further, the “number of genes downregulated (Wnt qRT-PCR array)” value in series [4] (1 and 24 hrs following administration, 10 mg/kg IV, mPFC) came to 1 gene. In addition, in series [4] (following injection, relative to vehicle control rats), the “Frizzled 2 (Fzd) gene expression (Wnt qPCR array)” value was “Significant gene expression changes”.
